From patent US20230080054A1 (ILDONG PHARMACEUTICAL CO., LTD., priority 2021, published 2023)

Target: T1, human ANO6 (Homo sapiens, UniProt Q4KMQ2)
T1 construct: expressed in transfected cells
T1 sequence (Q4KMQ2 1-931 isoform Q4KMQ2-2): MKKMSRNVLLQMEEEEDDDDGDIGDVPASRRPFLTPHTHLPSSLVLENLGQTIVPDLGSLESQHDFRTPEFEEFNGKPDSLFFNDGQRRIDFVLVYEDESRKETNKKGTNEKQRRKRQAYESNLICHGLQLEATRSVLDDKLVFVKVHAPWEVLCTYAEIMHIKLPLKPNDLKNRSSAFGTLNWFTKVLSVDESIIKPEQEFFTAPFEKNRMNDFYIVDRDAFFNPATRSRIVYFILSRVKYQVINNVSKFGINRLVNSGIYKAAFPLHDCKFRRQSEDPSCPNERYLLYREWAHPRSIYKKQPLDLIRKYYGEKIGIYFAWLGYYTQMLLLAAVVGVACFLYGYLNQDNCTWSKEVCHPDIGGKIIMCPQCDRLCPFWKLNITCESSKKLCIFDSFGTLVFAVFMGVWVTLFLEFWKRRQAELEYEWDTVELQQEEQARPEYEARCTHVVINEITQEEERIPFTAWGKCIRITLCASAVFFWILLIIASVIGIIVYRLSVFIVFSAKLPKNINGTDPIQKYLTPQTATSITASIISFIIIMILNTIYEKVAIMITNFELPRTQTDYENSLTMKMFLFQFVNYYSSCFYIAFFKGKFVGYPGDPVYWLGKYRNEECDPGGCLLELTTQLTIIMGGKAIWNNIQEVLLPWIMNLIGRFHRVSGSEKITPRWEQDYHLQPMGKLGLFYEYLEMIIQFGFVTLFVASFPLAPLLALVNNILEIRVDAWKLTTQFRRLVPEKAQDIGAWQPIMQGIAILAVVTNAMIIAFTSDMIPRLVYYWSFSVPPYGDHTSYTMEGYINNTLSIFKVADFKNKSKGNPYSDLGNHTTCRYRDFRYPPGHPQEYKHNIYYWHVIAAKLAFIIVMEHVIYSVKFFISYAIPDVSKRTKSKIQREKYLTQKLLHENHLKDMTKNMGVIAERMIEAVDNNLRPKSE
Experiment: LACT C2 assay (phosphatidylserine scramblase function assay)
Assay type: cell-based
Conditions: FRT cells expressing human ANO6, 10 μM ionomycin; for inhibition at 0.1 µM: test compound 100 nM, read-out: Inhibition Level 100 nM; for inhibition at 1 µM: test compound 1 μM, read-out: Inhibition Level 1 μM
How it was run: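 FRT cells stably expressing human ANO6 were pretreated with compound (1% DMSO) for 10 min, then stimulated with 10 μM ionomycin for 10 min. Surface phosphatidylserine was stained with 500 nM Lact-C2-GFP and quantified by imaging. Inhibition was scaled between unstimulated (100%) and ionomycin-only (0%) controls, averaged over triplicates.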

inhibition at 0.1 µM [%]	inhibition at 1 µM [%]	SMILES
< 30	30 to 60	N#CC1(NC(=O)c2cccc(Nc3ccc(-c4ccccc4)nn3)c2)CC1 [Compound 225, N-(1-cyanocyclopropyl)-3-((6-phenylpyridazin-3-yl)amino)benzamide]
30 to 60	≥ 60	O=C(N[C@@H]1C[C@H]1c1ccccc1)c1cccc(Nc2ncc(-c3ccoc3)cn2)c1 [Compound 157, 3-((5-(furan-3-yl)pyrimidin-2-yl)amino)-N-((1R,2S)-2-phenylcyclopropyl)benzamide]
< 30		O=C(N[C@@H]1C[C@H]1c1ccccc1)C12CC3CC(CC(Nc4ccc(-c5ccccc5)nn4)(C3)C1)C2 [Compound 166, N-((1R,2S)-2-phenylcyclopropyl)-3-((6-phenylpyridazin-3-yl)amino)adamantane-1-carboxamide]
< 30	30 to 60	Nc1ccc(NC(=O)c2cccc(Nc3ccc(-c4cccc(F)c4)cn3)c2)cc1 [Compound 146, N-(4-aminophenyl)-3-((5-(3-fluorophenyl)pyridin-2-yl)amino)benzamide]
< 30	30 to 60	O=C(NCc1ccc(C(F)(F)F)cc1C(F)(F)F)c1cccc(Nc2ncc(-c3cccc(F)c3)cn2)c1 [Compound 208, N-(2,4-bis(trifluoromethyl)benzyl)-3-((5-(3-fluorophenyl)pyrimidin-2-yl)amino)benzamide]
30 to 60	≥ 60	O=C(N[C@@H]1C[C@H]1c1ccc(F)c(F)c1)c1cccc(Nc2ccc(-c3ccccc3)nn2)c1 [Compound 234, N-((1R,2S)-2-(3,4-difluorophenyl)cyclopropyl)-3-((6-phenylpyridazin-3-yl)amino)benzamide]
< 30	< 30	CN1CCC(CNC(=O)c2cccc(Nc3ccc(-c4cccc(F)c4)cn3)c2)C1 (stereo not drawn) [Compound 145, 3-((5-(3-fluorophenyl)pyridin-2-yl)amino)-N-((1-methylpyrrolidin-3-yl)methyl)benzamide]
< 30		O=C(Nc1cccc(F)c1)C1CCCC(Nc2ccc(-c3ccccc3)nn2)C1 (stereo not drawn) [Compound 191, N-(3-fluorophenyl)-3-((6-phenylpyridazin-3-yl)amino)cyclohexane-1-carboxamide]
< 30	< 30	O=C(NC1(CO)CC1)c1cccc(Nc2ccc(-c3ccccc3)nn2)c1 [Compound 228, N-(1-(hydroxymethyl)cyclopropyl)-3-((6-phenylpyridazin-3-yl)amino)benzamide]
< 30	30 to 60	O=C(N[C@@H]1C[C@H]1c1ccccc1)c1cccc(Nc2nnc(-c3ccccc3)o2)c1 [Compound 159, 3-((5-phenyl-1,3,4-oxadiazol-2-yl)amino)-N-((1R,2S)-2-phenylcyclopropyl)benzamide]
< 30		O=C(NC1CCCCCC1)c1cccc(Nc2ncc(-c3cccc(F)c3)cn2)c1 [Compound A94]
< 30	< 30	O=C(NCCc1ccccc1C(=O)O)c1cccc(Nc2ncc(-c3cccc(F)c3)cn2)c1 [Compound 132, 2-(2-(3-((5-(3-fluorophenyl)pyrimidin-2-yl)amino)benzamido)ethyl)benzoic acid]
< 30	< 30	Cc1ccc(CNC(=O)c2cccc(Nc3ncc(-c4cccc(F)c4)cn3)c2)cc1 [Compound A97]
	< 30	COC(=O)c1ccc(CCNC(=O)c2cccc(Nc3ncc(-c4cccc(F)c4)cn3)c2)cc1 [Compound 126, methyl 4-(2-(3-((5-(3-fluorophenyl)pyrimidin-2-yl)amino)benzamido)ethyl)benzoate]
< 30	< 30	O=C(Nc1cccc(F)c1)c1cccc(Nc2nnc(-c3ccccc3)o2)c1 [Compound 158, N-(3-fluorophenyl)-3-((5-phenyl-1,3,4-oxadiazol-2-yl)amino)benzamide]
< 30	30 to 60	O=C(NC1(c2ccccc2)CC1)c1cccc(Nc2ncc(-c3cccc(F)c3)cn2)c1 [Compound 133, 3-((5-(3-fluorophenyl)pyrimidin-2-yl)amino)-N-(1-phenylcyclopropyl)benzamide]

inhibition at 0.1 µM [%]	inhibition at 1 µM [%]	SMILES
30 to 60		CCN1CCN(c2cc(F)ccc2CNC(=O)c2cccc(Nc3ccc(-c4ccccc4)nn3)c2)CC1 [Compound 220, N-(2-(4-ethylpiperazin-1-yl)-4-fluorobenzyl)-3-((6-phenylpyridazin-3-yl)amino)benzamide]
< 30	30 to 60	Nc1ccccc1NC(=O)c1cccc(Nc2ccc(-c3cccc(F)c3)cn2)c1 [Compound 143, N-(2-aminophenyl)-3-((5-(3-fluorophenyl)pyridin-2-yl)amino)benzamide]
< 30	< 30	CN1CCC(CCNC(=O)c2cccc(Nc3ccc(-c4cccc(F)c4)cn3)c2)CC1 [Compound 139, 3-((5-(3-fluorophenyl)pyridin-2-yl)amino)-N-(2-(1-methylpiperidin-4-yl)ethyl)benzamide]
30 to 60		O=C(N[C@@H]1C[C@H]1c1ccccc1)c1ccnc(Nc2ncc(-c3ccccc3)cn2)c1 [Compound 178, N-((1R,2S)-2-phenylcyclopropyl)-2-((5-phenylpyrimidin-2-yl)amino)isonicotinamide]
< 30	< 30	CN1CCC(C2CC2NC(=O)c2cccc(Nc3ccc(-c4cccc(F)c4)cn3)c2)CC1 (stereo not drawn) [Compound 144, 3-((5-(3-fluorophenyl)pyridin-2-yl)amino)-N-(2-(1-methylpiperidin-4-yl)cyclopropyl)benzamide]
< 30		O=C(Nc1cccc(F)c1)c1cccc(NC2CCC(c3ccccc3)CC2)c1 (single isomer, unassigned) [Compound 188, N-(3-fluorophenyl)-3-((4-phenylcyclohexyl)amino)benzamide]
< 30	< 30	O=C(NCC1(O)CC1)c1cccc(Nc2ccc(-c3ccccc3)nn2)c1 [Compound 237, N-((1-hydroxycyclopropyl)methyl)-3-((6-phenylpyridazin-3-yl)amino)benzamide]
< 30	< 30	Cc1ccc(CCNC(=O)c2cccc(Nc3ncc(-c4cccc(F)c4)cn3)c2)o1 [Compound 151, 3-((5-(3-fluorophenyl)pyrimidin-2-yl)amino)-N-(2-(5-methylfuran-2-yl)ethyl)benzamide]
< 30	< 30	COc1cc(F)ccc1CNC(=O)c1cccc(Nc2ccc(-c3cccc(F)c3)nn2)c1 [Compound 229, N-(4-fluoro-2-methoxybenzyl)-3-((6-(3-fluorophenyl)pyridazin-3-yl)amino)benzamide]
< 30	≥ 60	Cc1cc(F)ccc1CNC(=O)c1cccc(Nc2ccc(-c3ccccc3)nn2)c1 [Compound 210, N-(4-fluoro-2-methylbenzyl)-3-((6-phenylpyridazin-3-yl)amino)benzamide]
< 30		CN(c1cccc(C(=O)N[C@@H]2C[C@H]2c2ccccc2)c1)c1ncc(-c2cccc(F)c2)cn1 [Compound 180, 3-((5-(3-fluorophenyl)pyrimidin-2-yl)(methyl)amino)-N-((1R,2S)-2-phenylcyclopropyl)benzamide]
< 30	< 30	Cc1c(C2CC2NC(=O)c2cccc(Nc3ncc(-c4ccccc4)cn3)c2)cnn1C (stereo not drawn) [Compound 152, N-(2-(1,5-dimethyl-1H-pyrazol-4-yl)cyclopropyl)-3-((5-phenylpyrimidin-2-yl)amino)benzamide]
< 30	< 30	COC(=O)c1ccccc1CCNC(=O)c1cccc(Nc2ncc(-c3cccc(F)c3)cn2)c1 [Compound 127, methyl 2-(2-(3-((5-(3-fluorophenyl)pyrimidin-2-yl)amino)benzamido)ethyl)benzoate]
< 30	< 30	Cc1c(C2CC2NC(=O)c2cccc(Nc3ncc(-c4cccc(F)c4)cn3)c2)cnn1C (stereo not drawn) [Compound 150, N-(2-(1,5-dimethyl-1H-pyrazol-4-yl)cyclopropyl)-3-((5-(3-fluorophenyl)pyrimidin-2-yl)amino)benzamide]
< 30	30 to 60	O=C(NCc1ccc(Br)cc1)c1cccc(Nc2ncc(-c3cccc(F)c3)cn2)c1 [Compound A100]
